Experimental findings from US10206907B2, “Compounds useful for the treatment of degenerative and inflammatory diseases” (GALAPAGOS NV, priority 2008, dated 2019) are described below.

Read-outs that look alike come from different tables or passages of the source.

Data set [1] has as its target Recombinant human JAK1 catalytic domain (Homo sapiens (Human), UniProt P23458). Put plainly: JAK1 inhibition assay. It counts as biochemical. A digest of the protocol:
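Radiometric assay read by scintillation counting after phosphoric-acid washes. Percent inhibition calculated from cpm relative to vehicle and 10 μM staurosporine control. IC50 derived from compound dose-dilution series.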

In data set [2] the target is Recombinant human JAK2 catalytic domain (Homo sapiens (Human), UniProt O60674). Put plainly: JAK2 inhibition assay. It counts as biochemical. Conditions: semi-quantitative score. Put shortly: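 Radiometric kinase reactions ran for 90 min at 30 °C and were stopped with phosphoric acid, then washed and counted by scintillation. Percent inhibition was set relative to vehicle and to 10 μM staurosporine background. IC50 was derived from dose-dilution series.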

Data set [3] addresses Recombinant human JAK3 catalytic domain (Homo sapiens (Human), UniProt P52333). Put plainly: JAK3 inhibition assay. It counts as biochemical. To be noted: semi-quantitative score. As for the experimental part:
Plates were washed 6 times with 300 μL per well of a 75 mM phosphoric acid solution and the bottom of the plates was sealed. 40 μL/well of Microscint-20 was added, the top of the plates was sealed and readout was performed using the Topcount (Perkin Elmer). Kinase activity was calculated by subtracting counts per minute (cpm) obtained in the presence of a positive control inhibitor (10 μM staurosporine) from cpm obtained in the presence of vehicle. The ability of a test compound to inhibit this activity was determined as: Percentage inhibition=((cpm determined for sample with test compound present−cpm determined for sample with positive control inhibitor) divided by (cpm determined in the presence of vehicle−cpm determined for sample with positive control inhibitor))*100%.
Dose dilution series were prepared for the compounds enabling the testing of dose-response effects in the JAK3 assay and the calculation of the IC50 for each compound.

In data set [4] the test system is JAK-STAT signalling in HeLa cells. Put plainly: JAK-STAT signalling assay (OSM-triggered pSTAT1(2)-luciferase reporter in HeLa cells). The class given is cell-based. Conditions: Homo sapiens; HeLa cells, OSM-triggered pSTAT1(2)-luciferase reporter; read-out: STAT signalling EC50. A digest of the protocol:
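HeLa cells transiently transfected with pSTAT1(2)-luciferase reporter plus LacZ internal control, incubated overnight at 37 °C, 10% CO2, then OSM-stimulated with compound. Luciferase read by Steadylite luminescence and normalised to β-galactosidase (ONPG); percent inhibition from controls, EC50 from dose-response.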

The next data set concerns MMP13 in SW1353 cells. Put plainly: OSM/IL-1β signaling assay (MMP13 levels in SW1353 cells).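 Note: secreted MMP13 captured by antibody, activated with APMA and its activity read by fluorescence, inhibition scaled between vehicle-treated triggered wells (0%) and untriggered wells (100%).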 It counts as cell-based. Conditions: Homo sapiens; SW1353 cells, OSM and IL-1β triggered, MMP13 levels 48 hours after triggering; read-out: MMP13 EC50.
A short description of data set [5]: Microsomal stability, human liver microsomes. To be noted: percentage of compound remaining after 60 minutes, 3 μM compound. It counts as in vitro ADME. Put shortly: (§1)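 Compound was incubated with liver microsomes plus an NADP+/glucose-6-phosphate/G6PDH/MgCl2 regenerating system at 37°C for 1 h. Reactions were stopped 1:1 with MeOH or ACN and analysed by LCMS.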

A short description of data set [6]: Microsomal stability, rat liver microsomes. The class given is in vitro ADME. Conditions: percentage of compound remaining after 60 minutes, 3 μM compound. Put shortly:
as §1

The nature of data set [7]: Caco2 permeability (bi-directional). It counts as in vitro ADME, human. To be noted: human, pH 7.4; Caco-2, ratio of PappB>A/PappA>B. As for the experimental part: Bi-directional Caco-2 assays were performed as described below.
2×10^5 cells/well were seeded in plating medium consisting of DMEM+GlutaMAXI+1% NEAA+10% FBS (FetalClone II)+1% Pen/Strep. The medium was changed every 2-3 days.
50 μM Lucifer Yellow (Sigma) was added to the donor buffer in all wells to assess integrity of the cell layers by monitoring Lucifer Yellow permeation. As Lucifer Yellow (LY) cannot freely permeate lipophilic barriers, a high degree of LY transport indicates poor integrity of the cell layer.
After a 1 hour incubation at 37° C. while shaking at an orbital shaker at 150 rpm, 70 μL aliquots were taken from both apical (A) and basal (B) chambers and added to 100 μL1 50:50 acetonitrile:water solution containing analytical internal standard (0.5 μM carbamazepine) in a 96 well plate.
Concentrations of compound in the samples were measured by high performance liquid-chromatography/mass spectroscopy (LC-MS/MS).
The Efflux ratios, as an indication of active efflux from the apical cell surface, were calculated using the ratio of PappB>A/PappA>B.
The following assay acceptance criteria were used:
Lucifer yellow permeability: ≤100 nm/s

Chain of Recombinant human JAK2 catalytic domain (O60674 808-1132): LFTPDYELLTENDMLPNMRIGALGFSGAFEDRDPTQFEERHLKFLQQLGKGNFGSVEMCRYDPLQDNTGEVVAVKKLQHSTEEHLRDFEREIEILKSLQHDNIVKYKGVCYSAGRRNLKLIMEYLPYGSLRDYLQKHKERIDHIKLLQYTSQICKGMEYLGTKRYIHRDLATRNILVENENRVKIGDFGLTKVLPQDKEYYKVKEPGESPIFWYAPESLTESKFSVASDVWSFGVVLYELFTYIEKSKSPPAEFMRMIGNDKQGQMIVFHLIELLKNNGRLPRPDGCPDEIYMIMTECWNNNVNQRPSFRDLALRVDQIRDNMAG
Chain of Recombinant human JAK1 catalytic domain (P23458 850-1154): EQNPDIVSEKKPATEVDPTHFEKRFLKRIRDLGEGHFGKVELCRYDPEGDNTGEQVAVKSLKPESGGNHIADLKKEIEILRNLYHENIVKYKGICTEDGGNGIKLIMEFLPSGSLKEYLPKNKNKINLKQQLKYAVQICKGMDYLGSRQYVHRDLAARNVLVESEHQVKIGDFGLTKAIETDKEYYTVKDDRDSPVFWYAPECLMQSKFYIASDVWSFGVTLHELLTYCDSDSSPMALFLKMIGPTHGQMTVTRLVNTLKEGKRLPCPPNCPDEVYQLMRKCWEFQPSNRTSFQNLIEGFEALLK
Chain of Recombinant human JAK3 catalytic domain (P52333 781-1124): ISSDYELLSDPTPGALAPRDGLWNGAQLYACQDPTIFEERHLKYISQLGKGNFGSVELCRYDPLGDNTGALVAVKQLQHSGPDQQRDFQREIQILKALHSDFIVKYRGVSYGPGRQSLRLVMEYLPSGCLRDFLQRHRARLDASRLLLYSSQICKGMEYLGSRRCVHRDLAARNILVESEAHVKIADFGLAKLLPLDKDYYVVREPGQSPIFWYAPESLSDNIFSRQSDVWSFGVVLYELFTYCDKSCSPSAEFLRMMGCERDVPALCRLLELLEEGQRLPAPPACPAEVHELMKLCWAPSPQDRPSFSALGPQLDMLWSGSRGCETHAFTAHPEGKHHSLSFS

Regarding `O=C(c1ccccc1)c1ccc(-c2cccc3nc(NC(=O)C4CC4)nn23)cc1` [Compound 10, N-(5-(4-benzoylphenyl)-[1,2,4]triazolo[1,5-a]pyridin-2-yl)cyclopropanecarboxamide], the IC50 is less than 0.1 µM in data set [1] (semi-quantitative score), 0.101 to 0.5 µM in data set [2] and greater than 1 µM in data set [3]. Besides, the EC50 (in data set [4]; in the data set with MMP13 in SW1353 cells) was greater than 1 µM in each case. In data set [5], the “Microsomal Stability Human (%)” value is reported as “**** (**** 76-100)”. For the same molecule, the “Microsomal Stability Rat (%)” value in data set [6] is reported as “** (** 26-50)”.
On to `O=C(Nc1nc2cccc(-c3ccc(C(=O)N4CCCC4)cc3)n2n1)C1CC1` [Compound 19, N-(5-(4-(pyrrolidine-1-carbonyl)phenyl)-[1,2,4]triazolo[1,5-a]pyridin-2-yl)cyclopropanecarboxamide], for which the IC50 was less than 0.1 µM in data set [1] (semi-quantitative score), 0.101 to 0.5 µM in data set [2] and greater than 1 µM in data set [3]. For the same molecule, the EC50 (in data set [4]; in the data set on MMP13 in SW1353 cells) was greater than 1 µM in each case. Also, in data set [5], the “Microsomal Stability Human (%)” value is on record as “**** (**** 76-100)”. Besides, the “Microsomal Stability Rat (%)” value in data set [6] is given as “*** (*** 51-75)”.
As to `CN(C(=O)c1ccc(-c2cccc3nc(NC(=O)C4CC4)nn23)cc1)c1ccccc1` [Compound 30, 4-(2-(cyclopropanecarboxamido)-[1,2.4]triazolo[1,5-a]pyridin-5-yl)-N-methyl-N-phenylbenzamide], the IC50 was less than 0.1 µM in data set [1] (semi-quantitative score), less than 0.1 µM in data set [2] and greater than 1 µM in data set [3]. Further, the EC50 in data set [4] was 0.501 to 1 µM; in the data set on MMP13 in SW1353 cells it was greater than 1 µM. Besides, in data set [5], the “Microsomal Stability Human (%)” value is reported as “* (* 0-25)”. In addition, the “Microsomal Stability Rat (%)” value in data set [6] is “* (* 0-25)”.
`CN1CCN(C(=O)c2ccc(-c3cccc4nc(NC(=O)C5CC5)nn34)cc2)CC1` [Compound 71, N-(5-(4-(4-methylpiperazine-1-carbonyl)phenyl)-[1,2,4]triazolo[1,5-a]pyridin-2-yl)cyclopropanecarboxamide]: the IC50 in data set [1] (semi-quantitative score) is less than 0.1 µM; in data set [3] it was greater than 1 µM. The EC50 (in data set [4]; in the data set on MMP13 in SW1353 cells) was greater than 1 µM in each case. Moreover, the “Microsomal Stability Human (%)” value in data set [5] is “* (* 0-25)”. In data set [6], the “Microsomal Stability Rat (%)” value is reported as “**** (**** 76-100)”.
In the case of `O=C(Nc1nc2cccc(-c3ccc(NS(=O)(=O)Cc4ccccc4)cc3)n2n1)C1CC1` [Compound 77, N-(5-(4-(phenylmethylsulfonamido)phenyl)-[1,2,4]triazolo[1,5-a]pyridin-2-yl)cyclopropanecarboxamide], the IC50 in data set [1] (semi-quantitative score) is less than 0.1 µM; in data set [2] it was 0.101 to 0.5 µM; in data set [3], greater than 1 µM. For the same molecule, the EC50 in data set [4] is greater than 1 µM; in the data set on MMP13 in SW1353 cells, 0.001 to 0.5 µM. The “Microsomal Stability Human (%)” value in data set [5] is recorded as “** (** 26-50)”. For the same molecule, in data set [6], the “Microsomal Stability Rat (%)” value is reported as “** (** 26-50)”.
`CCCc1ccc(S(=O)(=O)Nc2ccc(-c3cccc4nc(NC(=O)C5CC5)nn34)cc2)cc1` [Compound 85, N-(5-(4-(4-propylphenylsulfonamido)phenyl)-[1,2,4]triazolo[1,5-a]pyridin-2-yl)cyclopropanecarboxamide]: the IC50 in data set [1] (semi-quantitative score) is less than 0.1 µM; in data set [2] it was 0.101 to 0.5 µM; in data set [3], greater than 1 µM. The EC50 (in data set [4]; in the data set on MMP13 in SW1353 cells) was greater than 1 µM throughout. The “Microsomal Stability Human (%)” value in data set [5] was “* (* 0-25)”. In addition, in data set [6], the “Microsomal Stability Rat (%)” value is “* (* 0-25)”.
Regarding `O=C(Nc1nc2cccc(-c3ccc(NS(=O)(=O)CCc4cccc(F)c4)cc3)n2n1)C1CC1` [Compound 88, N-(5-(4-(2-(3-fluorophenyl)ethylsulfonamido)phenyl)-[1,2,4]triazolo[l,5-a]pyridin-2-yl)cyclopropanecarboxamide], the results for the IC50 in data set [1] (semi-quantitative score), in data set [2] and in data set [3] were less than 0.1 µM, 0.101 to 0.5 µM and greater than 1 µM, respectively. Moreover, the EC50 (in data set [4]; in the data set with MMP13 in SW1353 cells) was greater than 1 µM in each case. For the same molecule, the “Microsomal Stability Human (%)” value in data set [5] is given as “* (* 0-25)”. Also, the “Microsomal Stability Rat (%)” value in data set [6] is on record as “* (* 0-25)”.
As for `CCCCN(CCCN1CCOCC1)C(=O)c1ccc(-c2cccc3nc(NC(=O)C4CC4)nn23)cc1` [Compound 90, N-butyl-4-(2-(cyclopropanecarboxamido)-[1,2,4]triazolo[1,5-a]pyridin-5-yl)-N-(3-morpholinopropyl)benzamide], the IC50 in data set [1] (semi-quantitative score) was less than 0.1 µM; in data set [2], 0.501 to 1 µM; in data set [3], greater than 1 µM. Also, the EC50 (in data set [4]; in the data set on MMP13 in SW1353 cells) was greater than 1 µM in each case. In data set [5], the “Microsomal Stability Human (%)” value is “** (** 26-50)”. Also, the “Microsomal Stability Rat (%)” value in data set [6] is given as “** (** 26-50)”.
Regarding `CC(=O)Nc1ccc(COc2ccc(-c3cccc4nc(NC(=O)C5CC5)nn34)cc2)cc1` [Compound 92, N-(5-(4-(4-acetamidobenzyloxy)phenyl)-[1,2,4]triazolo[1,5-a]pyridin-2-yl)cyclopropanecarboxamide], the IC50 in data set [1] (semi-quantitative score) is less than 0.1 µM; in data set [2] it was 0.101 to 0.5 µM; in data set [3], 0.501 to 1 µM. Moreover, the EC50 in the data set with MMP13 in SW1353 cells is greater than 1 µM. Moreover, the “Microsomal Stability Human (%)” value in data set [5] is reported as “** (** 26-50)”. Also, the “Microsomal Stability Rat (%)” value in data set [6] is recorded as “* (* 0-25)”.
Regarding `O=C(Nc1nc2cccc(-c3ccc(OCCn4cccn4)cc3)n2n1)C1CC1` [Compound 98], the IC50 in data set [1] (semi-quantitative score) is less than 0.1 µM; in data set [2] it was 0.101 to 0.5 µM; in data set [3], greater than 1 µM. Further, the EC50 (in data set [4]; with MMP13 in SW1353 cells) was greater than 1 µM in each case. The “Microsomal Stability Human (%)” value in data set [5] is “** (** 26-50)”. In addition, the “Microsomal Stability Rat (%)” value in data set [6] is given as “** (** 26-50)”.
Take `O=C(NCCCc1ccccc1)c1ccc(-c2cccc3nc(NC(=O)C4CC4)nn23)cc1` [Compound 114, 4-(2-(cyclopropanecarboxamido)-[1,2,4]triazolo[1,5-a]pyridin-5-yl)-N-(3-phenylpropyl)benzamide]: the results for the IC50 in data set [1] (semi-quantitative score), in data set [2] and in data set [3] were less than 0.1 µM, 0.101 to 0.5 µM and greater than 1 µM, respectively. In addition, the EC50 in data set [4] is greater than 1 µM; in the data set with MMP13 in SW1353 cells, 0.501 to 1 µM. Besides, in data set [5], the “Microsomal Stability Human (%)” value is on record as “* (* 0-25)”. Moreover, the “Microsomal Stability Rat (%)” value in data set [6] is listed as “* (* 0-25)”.
Consider `CC(Oc1ccc(-c2cccc3nc(NC(=O)C4CC4)nn23)cc1)c1ccccn1` (stereo not shown) [Compound 189, N-(5-(4-(1-(pyridin-2-yl)ethoxy)phenyl)-[1,2,4]triazolo[1,5-a]pyridin-2-yl)cyclopropanecarboxamide], for which the IC50 is less than 0.1 µM in data set [1] (semi-quantitative score) and 0.501 to 1 µM in data set [3]. Besides, the EC50 is 0.101 to 0.5 µM in data set [4] and greater than 1 µM in the data set on MMP13 in SW1353 cells. Moreover, the “Microsomal Stability Human (%)” value in data set [5] is “** (** 26-50)”. Further, in data set [6], the “Microsomal Stability Rat (%)” value is listed as “** (** 26-50)”.
For `NC(=O)c1ccc(COc2ccc(-c3cccc4nc(NC(=O)C5CC5)nn34)cc2)cn1` [Compound 192, 5-{4-[2-(Cyclopropanecarbonyl-amino)-[1,2,4]triazolo[1,5-a]pyridin-5-yl]-phenoxymethyl}-pyridine-2-carboxylic Acid Amide], the IC50 was less than 0.1 µM in data set [1] and 0.101 to 0.5 µM in data set [3]. The EC50 in data set [4] lay in the range of 0.101 to 0.5 µM; with MMP13 in SW1353 cells, 0.501 to 1 µM. In addition, in data set [5], the “Microsomal Stability Human (%)” value is given as “**** (**** 76-100)”. Besides, in data set [6], the “Microsomal Stability Rat (%)” value was “**** (**** 76-100)”. The efflux ratio at 1 h, 10 µM in data set [7] worked out at 2.
